What all share (assay): Cell growth inhibition assay
One experiment relates to HCC1419. The format is cell-based. Conditions: Homo sapiens; HCC1419, breast, HER2+, WT; single agent; read-out: IC50 Single Agent (mean +/- std). On the procedure: (§1) Human breast tumor lines. BT-474, HCC1419, HCC1937, HCC1954, HCC202, KPL-1, MDA-MB-157, MDA-MB-175-VII, MDA-MB-361, MDA-MB-453, SK-BR-3, SUM225PE, UACC893, and ZR-75-1; lung tumor line, CALU-3; and melanoma line, CHL-1, were from ATCC. Human breast tumor line JIMT-1 was from European Collection of Cell Cultures (UK). Human breast tumor lines SUM149PT, SUM190PT and SUM52PE were from Asterand. These lines were cultured in RPMI 1640 medium containing 10% fetal bovine serum (FBS). A head and neck tumor line, LICR LON HN5 (HN5), a gift from the Institute of Cancer Research, Surrey, U.K, was cultured in Dulbecco's modified Eagle medium (DMEM) containing 5% FBS; KPL-4 breast tumor cell line was kindly provided by Dr Junichi Kurebayashi (Kawasaki Medical School, Okayama, Japan) and cultured in DMEM containing 5% FBS. JIMT-1 is a line derived from a patient clinically resistant to trastuzumab (Herceptin®). BT-474-J4 is a single cell clone derived from a pool of BT-474 cells that were selected to grow in lapatinib to a concentration of 3 μM.
(§2) All cells were cultured for a minimum of 72 hours prior to cell plating. Cells were assayed in a 96-well tissue culture plate (NUNC 136102) of RPMI medium containing 10% FBS for all cells at 2,000 cells per well except KPL-4 and HN5 which were plated in DMEM containing 5% FBS at 500 cells per well. Approximately 24 hours after plating, cells were exposed to ten, two-fold or three-fold serial dilutions of compound or the combination of the two agents at a constant molar to molar ratio of 1:1 Compound A to Compound B in RPMI media containing 10% FBS or DMEM containing 5% FBS. Cells were incubated in the presence of compounds for 3 days. ATP levels were determined by adding Cell Titer Glo® (Promega) according to the manufacturer's protocol. Briefly, Cell Titer Glo® was added each plate, incubated for 20 minutes then luminescent signal was read on the SpectraMax L plate reader with a 0.5 sec integration time.
(§3) Inhibition of cell growth was estimated after treatment with compound or combination of compounds for three days and comparing the signal to cells treated with vehicle (DMSO). Cell growth was calculated relative to vehicle (DMSO) treated control wells. Concentration of compound that inhibits 50% of control cell growth (IC50) was interpolated using nonlinear regression with the equation, y=(A+(B−A)/(1+(C/x)̂D))), where A is the minimum response (ymin), B is the maximum response (ymax), C is the inflection point of the curve (EC50) and D is the Hill coefficient. […]

The next experiment has as its system MDA-MB-361. The format is cell-based. The conditions noted are these: Homo sapiens, MDA-MB-361, MDA-MB-361, breast, HER2+, PIK3CA E545K; single agent; read-out: IC50 Single Agent (mean +/- std). How it is done: as §1, §2, §3
The next experiment concerns MDA-MB-157. The format is cell-based. The conditions noted are these: Homo sapiens; MDA-MB-157, breast, WT; single agent; read-out: IC50 Single Agent (mean +/- std). On the procedure: as §1, §2, §3
Another experiment relates to UACC893. The format is cell-based. The conditions noted are these: Homo sapiens, UACC-893, UACC893, breast, HER2+, PIK3CA H1047R; single agent; read-out: IC50 Single Agent (mean +/- std). On the procedure: as §1, §2, §3
The next experiment relates to HCC1954. The format is cell-based. Conditions: Homo sapiens, HCC1954, HCC1954, breast, HER2+, PIK3CA H1047R; single agent; read-out: IC50 Single Agent (mean +/- std). How it is done:
as §1, §2, §3

In another experiment the test system is KPL-1. The format is cell-based. The conditions noted are these: Homo sapiens; KPL-1, breast, PIK3CA E545K; single agent; read-out: IC50 Single Agent (mean +/- std). How it is done: as §1, §2, §3
A further experiment has as its system BT-474. It counts as cell-based. Conditions: Homo sapiens; BT-474, breast, HER2+, PIK3CA K111N; single agent; read-out: IC50 Single Agent (mean +/- std). How it is done: as §1, §2, §3
Another experiment relates to HCC1937. The format is cell-based. The conditions noted are these: Homo sapiens; HCC1937, breast, PTEN low; single agent; read-out: IC50 Single Agent (mean +/- std). On the procedure:
as §1, §2, §3

For a further experiment, the system named is SK-BR-3. The format is cell-based. Conditions: Homo sapiens; SK-BR-3, breast, HER2+, WT; single agent; read-out: IC50 Single Agent (mean +/- std). On the procedure:
as §1, §2, §3

The next experiment relates to SUM52PE. It counts as cell-based. The conditions noted are these: Homo sapiens, breast, FGFR2+, WT, single agent, read-out: IC50 Single Agent (mean +/- std). On the procedure: as §1, §2, §3
The subject of a further experiment is HCC202. It counts as cell-based. The conditions noted are these: Homo sapiens; HCC202, breast, HER2+, PIK3CA E545K; single agent; read-out: IC50 Single Agent (mean +/- std). How it is done: as §1, §2, §3
The next experiment relates to JIMT-1. The format is cell-based, human. The conditions noted are these: for IC50: Homo sapiens, JimT-1, breast, HER2+, PIK3CA C420R, single agent, read-out: IC50 Single Agent (mean +/- std); for sensitivity as single agents: JIMT-1. How it is done: as §1, §2, §3
The next experiment deals with BT-474-J4. It counts as cell-based, human. The conditions noted are these: BT-474-J4, breast, HER2+, PIK3CA K111N, single agent, read-out: IC50 Single Agent (mean +/- std). On the procedure:
as §1, §2, §3

The subject of another experiment is SUM225PE. It counts as cell-based, human. The conditions noted are these: breast, HER2+, WT, single agent, read-out: IC50 Single Agent (mean +/- std). On the procedure: as §1, §2, §3
Another experiment has as its system SUM149PT. The format is cell-based. The conditions noted are these: Homo sapiens, breast, PTEN low, single agent, read-out: IC50 Single Agent (mean +/- std). On the procedure:
as §1, §2, §3

The next experiment concerns Calu-3. It counts as cell-based. The conditions noted are these: Homo sapiens, Calu-3, Calu-3, lung, HER2+, WT; single agent; read-out: IC50 Single Agent (mean +/- std). On the procedure:
as §1, §2, §3

Another experiment has as its system CHL-1. The format is cell-based. The conditions noted are these: Homo sapiens, CHL-1, CHL-1, melanoma, WT; single agent; read-out: IC50 Single Agent (mean +/- std). On the procedure:
as §1, §2, §3

Structures are written as SMILES. Where two headings read alike, the source gives them in different places.

Turning to `CC(=O)Nc1cccc(-n2c(=O)n(C3CC3)c(=O)c3c(Nc4ccc(I)cc4F)n(C)c(=O)c(C)c32)c1` [Compound A, N-{3-[3-cyclopropyl-5-(2-fluoro-4-iodo-phenylamino)-6,8-dimethyl-2,4,7-trioxo-3,4,6,7-tetrahydro-2H-pyrido[4,3-d]pyrimidin-1-yl]phenyl}acetamide], the IC50 in the experiment with HCC1419, in the experiment with MDA-MB-361, with MDA-MB-157, in the experiment with UACC893, in the experiment on HCC1954 and with KPL-1 was greater than 1 µM throughout. For the same compound, the IC50 with BT-474, in the experiment on HCC1937, with SK-BR-3, in the experiment with SUM52PE, in the experiment on HCC202 and in the experiment on JIMT-1 was greater than 1 µM throughout. For the same compound, the IC50 with BT-474-J4 (Homo sapiens) and in the experiment on SUM225PE (Homo sapiens) was greater than 1 µM throughout. For the same compound, the “sensitivity as single agents” value in the experiment on JIMT-1 is “not sensitive”.

With `Cn1ncc(Cl)c1-c1cc(C(=O)N[C@H](CN)Cc2ccc(F)c(F)c2)oc1Cl` [Compound B, N-{(1S)-2-amino-1-[(3,4-difluorophenyl)methyl]ethyl}-5-chloro-4-(4-chloro-1-methyl-1H-pyrazol-5-yl)-2-furancarboxamide], the IC50 with HCC1419, in the experiment on MDA-MB-157, in the experiment on KPL-1, in the experiment on SUM149PT, in the experiment on BT-474 and in the experiment with HCC1937 was greater than 1 µM in each case. The IC50 was greater than 1 µM in the experiment with Calu-3; greater than 1 µM with SK-BR-3; greater than 1 µM in the experiment with CHL-1; greater than 1 µM with HCC202; greater than 1 µM in the experiment with JIMT-1; 0.217 µM in the experiment with BT-474-J4. For the same compound, the IC50 in the experiment with BT-474-J4 (Homo sapiens) is 0.271 µM; in the experiment on SUM225PE (Homo sapiens), less than 1 µM; in the experiment with SUM225PE, 0.529 µM. The “sensitivity as single agents” value with JIMT-1 is “not sensitive”.

Values taken from US20150094321A1, “COMBINATION” (GlaxoSmithKline LLC, priority 2009, published 2015).
